Measured values: patent EP4088722A1, “PHARMACEUTICAL COMPOSITIONS, USES THEREOF AND METHODS FOR TREATMENT OF GENETIC DISEASES CAUSED BY INTRONIC SPLICE-ACCEPTOR SITE MUTATIONS” (priority 2021, dated 2022)
Each block holds one compound with its values, some of them ahead of it.

How the values were obtained:
[1] = system: AGA minigene construct without luciferase (c.128-2A>G); assay: cells; format: cell-based, human; details: 24 h; for changes in the splicing (correctly spliced product): 7.5 mM, qRT-PCR; for fold induction at 7500 µM: Homo sapiens, HEK-293T, read-out: increase in the correctly spliced product (exons 2 and 3)
Description: (§1) For qPCRs, total RNA was isolated with peqGOLD TriFast™ (VWR, Darmstadt, Germany) and included a DNAse step. Total RNA (1-3 µg) were reverse transcribed with 150 fmol oligo(dT) primers and M-MuLV reverse transcriptase (NEB, Frankfurt, Germany) in a total volume of 45 µL. Real-time quantitative PCRs were performed using the CFX Connect Real-Time PCR Detection System (Bio-Rad, Munich, Germany). Annealing temperature was 60°C for all primers. The reactions were done as duplicates with 0.8 µL cDNA in a total volume of 10 µL using iTaq-TMUniversal SYBR Green Supermix (Bio-Rad). PCR products were quantified with the ACt-method. For normalization, the mean of the reference genes B2M, Rpl13a, Ywhaz and TBP was used. Table 2. Sequences of primers used for the quantitative real-time PCR.
RNA was isolated from the cells, reverse transcribed to cDNA, and a qRT-PCR with a fwd primer residing in exon 2 and a reverse primer in the plasmid vector (3'-untranslated region of the resulting RNA) was performed. Thus, amplification of a PCR product of 271 bp is only observed when both exons 2 and 3 are present in the mRNA.

[2] = system: AGA-luciferase minigene constructs (c.128-2A>G); assay: AGA luciferase minigene splicing assay in AGU patient fibroblasts; format: cell-based, human; details: 24 h; for luciferase activity: 7.5 mM; for luciferase readout: increasing amounts
[3] = system: AGA minigene containing the splice variant (c.128-2A>G); assay: AGA minigene luciferase splicing assay in AGA knockout HEK293T cells; details: for splicing of the AGA minigene / variant (summary statement): overall statement in the description, across the AGA assays
AGA mRNA = assay: qRT-PCR of AGA mRNA in control fibroblasts; format: cell-based, human; details: 7.5 mM caffeine, 24 h
Description: (§2) Fibroblasts were seeded into 6-well plates and treated with the following compounds: caffeine, theophylline, theobromine, pentoxifylline, doxofylline(1-7.5 mM, solvent H2O; TCI, Eschborn, Germany), luteolin (10-50 µM, solvent DMSO; Biozol, Eching, Germany) or kinetin (10-100 µM, solvent DMSO; TCI, Eschborn,Germany) for 24 h (RNA) or 48 h (protein lysate). Cells were harvested in lysis buffer (50 mM Tris pH 7.4, 150 mM NaCl, 2 mM EDTA, 1% NP-40), supplemented with protease inhibitor cocktail (Sigma-Aldrich). Protein concentrations in the lysates were determined according to the Bradford method.
as §1

[4] = system: endogenous AGA mRNA with exon 2; format: cell-based, human; details: 24 h, patient fibroblasts
Description: as §2, §1

AGA activity = AGA activity in patient fibroblasts, colorimetric Morgan-Elson assay with AADG as substrate; format: cell-based, human; details: 25 µM luteolin, 48 h
Description: as §2
In most experiments, AGA activity was measured fluorimetrically as described in Banning, A.; et al. Sci Rep 2016, 6, 37583. […] In short, 12.5 µl of cell lysate were mixed with 100 nmol AADG, 3.35 µl 0,5 M KH2PO4, pH8, and 0.9% NaCl to reach a total volume of 25 µl. […] The liberated N-acetylglucosamine was measured at 585 nm. […]
Due to these encouraging data, the AGA activity was measured in patient fibroblasts treated with 25 µM luteolin (Figure 10b). Since luteolin acts as a quencher in our standard fluorescence-based AGA activity measurement [Schoefer, L.; Braune, A., FEMS Microbiol Lett 2001, 204, 277-280, and our own observations], we used a colorimetric activity assay [Tikkanen, R.; et al., DNA Cell Biol 1995, 14, 305-312] that is less sensitive but not subject to quenching by luteolin.

[5] = 7.5 mM, 24 h, compared to untreated cells

luciferase activity [2]: failed to do so
Compound: Cn1cnc2c1c(=O)[nH]c(=O)n2C [theobromine, 3,7-dimethylxanthine]
changes in the splicing (correctly spliced product) [1]: did not produce significant changes in the splicing | luciferase activity ([3]; four concentrations 1 mM - 7.5 mM, 24 h, compared to untreated cells): non-significant changes

Compound: CC(=O)CCCCn1c(=O)c2c(ncn2C)n(C)c1=O [pentoxifylline, 3,7-dimethyl-1-(5-oxohexyl) xanthine]
fold induction at 7500 µM [1]: 5 to 10 | luciferase activity [2]: significantly increased the luciferase activity | luciferase activity [3, 5]: significantly increased luciferase activity

Compound: Cn1c(=O)c2[nH]cnc2n(C)c1=O [theophylline, 1,3-dimethylxanthine]
fold induction at 7500 µM [1]: 5 to 10 | luciferase readout [2]: significant, dose dependent increase in the luciferase readout | luciferase activity [3, 5]: significantly increased luciferase activity

Compound: Cn1c(=O)c2c(ncn2C)n(C)c1=O [caffeine, 1,3,7-trimethylxanthine]
fold induction at 7500 µM [1]: ~20 | AGA mRNA (AGA mRNA): increase in the AGA mRNA in control fibroblasts | endogenous AGA mRNA splicing products that contain exons 2 and 3 ([4]; 7.5 mM caffeine): significantly increased to a level that corresponds to the untreated control fibroblasts | luciferase readout [2]: significant, dose dependent increase in the luciferase readout | luciferase activity [3, 5]: highest increase

luciferase activity [2]: failed to do so
Compound: Cn1c(=O)c2c(ncn2CC2OCCO2)n(C)c1=O [doxofylline, 7-(1,3-dioxolan-2-ylmethyl)-1,3-dimethylpurine-2,6-dione]
changes in the splicing (correctly spliced product) [1]: did not produce significant changes in the splicing | luciferase activity [3, 5]: significantly increased luciferase activity | splicing of the AGA minigene / variant (summary statement) [3]: consistently failed to exert any significant effects

Compound: c1coc(CNc2ncnc3[nH]cnc23)c1 [kinetin]
endogenous AGA mRNA with exon 2 ([4]; kinetin 50 µM): no significant increase | luciferase activity ([3]; kinetin, lower concentrations (from 10 µM, below 100 µM), 24 h): only minor effects | splicing of the AGA minigene / variant (summary statement) [3]: no systematic positive effect

Compound: O=c1cc(-c2ccc(O)c(O)c2)oc2cc(O)cc(O)c12 [luteolin, 3',4',5,7-tetrahydroxyflavone]
AGA activity (AGA activity): significant increase in the AGA activity | fold induction at 25 µM ([4]; Homo sapiens, Fibroblast, luteolin 25 µM, read-out: increase of endogenous AGA mRNA with exon 2): ~2.5 | increase in luciferase activity ([3]; 25 µM luteolin, 24 h, most efficient concentration): 5-6 fold | luciferase activity ([3]; all luteolin concentrations, 10 µM - 50 µM, 24 h): significant increase in luciferase activity | luciferase expression in Western blot ([3]; lysates of the luteolin/kinetin luciferase assay): strong luciferase expression
